The text below walks through data of patent US20030134774A1, “Methods for inhibiting cardiac disorders” (priority 2001, published 2003).

One assay relates to p38-MAPK. Kind of assay: Phospho-p38 MAP kinase Western blot in cardiomyocytes. The format is cell-based, rat. The settings on record: rPMT 24 hr; sorbitol 5 min positive control. The procedure:
(§1) rPMT promotes the activation of ERK1/2, JNK and p38-MAPK cascades. Incubations were for 24 hr in the presence of the indicated concentrations of rPMT. PMA (100 nM, 5 min) and sorbitol ([…], 5 min) were included as positive controls. Cell lysates were subjected to SDS-PAGE followed by Western blotting as described in Methods below. Phosphorylated forms of ERK1/2 (A), p38 MAP kinase (B) or JNK (C) were detected by specific anti-phospho-ERK1/2, -p38 MAP kinase or -JNK antibodies, respectively. Blots were stripped and subjected to immunoblot analysis with total ERK1/2 or p38 MAP kinase to normalize for minor variations in protein loading (Panels A and B). Top: representative autoradiograms (with each lane from a single gel exposed for the same duration). Bottom: quantification of each series of experiments (n=3).
(§2) Specific immunoreactivity for individual PKC isoforms was quantified according to methods described previously. […] Bands were detected by enhanced chemiluminescence and blots were quantified by laser scanning densitometry.

The test system of the next assay is JNK. The assay is described as follows: Phospho-JNK Western blot in cardiomyocytes. The format is cell-based, rat. Conditions: rPMT 24 hr; sorbitol 5 min positive control. The procedure:
as §1, §2

In another assay the target is T1, PKC-ε (Rattus norvegicus, UniProt P09216).
T1 construct: PKCε is detected as a single band in quiescent cardiomyocytes; endogenous in cells; host or cells: cultured neonatal rat ventricular cardiomyocytes
T1 sequence (P09216 1-737): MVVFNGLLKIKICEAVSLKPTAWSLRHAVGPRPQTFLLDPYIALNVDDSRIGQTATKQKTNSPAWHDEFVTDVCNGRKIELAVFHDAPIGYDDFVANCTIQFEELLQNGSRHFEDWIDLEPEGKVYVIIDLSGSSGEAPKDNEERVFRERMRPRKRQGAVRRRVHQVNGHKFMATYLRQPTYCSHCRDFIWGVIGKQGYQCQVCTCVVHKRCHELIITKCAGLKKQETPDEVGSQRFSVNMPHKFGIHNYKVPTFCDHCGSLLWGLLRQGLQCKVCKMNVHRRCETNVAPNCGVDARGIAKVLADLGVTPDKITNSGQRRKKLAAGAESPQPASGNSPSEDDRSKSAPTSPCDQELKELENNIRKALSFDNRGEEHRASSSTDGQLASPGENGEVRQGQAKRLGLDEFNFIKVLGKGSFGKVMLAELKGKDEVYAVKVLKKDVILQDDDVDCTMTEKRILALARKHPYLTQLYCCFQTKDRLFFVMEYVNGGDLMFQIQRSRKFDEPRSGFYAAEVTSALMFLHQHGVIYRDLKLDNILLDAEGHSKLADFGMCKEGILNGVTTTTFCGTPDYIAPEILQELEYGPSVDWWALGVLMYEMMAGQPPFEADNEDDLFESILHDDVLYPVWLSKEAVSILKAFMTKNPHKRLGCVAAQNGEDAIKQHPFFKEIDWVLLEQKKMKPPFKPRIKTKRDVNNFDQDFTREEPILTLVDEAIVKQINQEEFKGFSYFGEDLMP
Kind of assay: Western blot with anti-phospho-PKC antibody in cardiomyocytes. Type of assay: cell-based. As for the experimental part:
rPMT selectively activates nPKC isoforms. Cardiomyocyte cultures were incubated in culture medium without or with NE (10 μM), rPMT (400 ng/ml) or PMA (100 nM) for 24 hr (Panels A and C) or 5 min (Panel B). Soluble extracts were prepared and separated by SDS-PAGE followed by immunodetection of total PKC isoform abundance with antibodies that are specific for the individual PKC isoforms (Panel A), or phosphorylated forms of PKC (largely PKCε) with a pan-phospho-PKC antibody (Panels B and C), as described in Methods below. GF109203 was included at 5 μM 30 min prior to stimulation as indicated.
(§3) Specific immunoreactivity for individual PKC isoforms was quantified according to methods described previously. For assays of MAPKs and AKT, cells were exposed to test agents as indicated in individual experimental protocols, washed three times with ice-cold calcium/magnesium-free Dulbecco's PBS (pH 7.1), scraped into ice-cold extraction buffer [20 mM β-glycerophosphate pH 7.5, 20 mM sodium fluoride, 2 mM EDTA, 0.2 mM sodium vanadate, 10 μg/ml aprotinin, 25 μg/ml leupeptin, 50 μg/ml PMSF, and 0.3% (v/v) β-mercaptoethanol], lysed by sonication, and centrifuged at 10,000 g for 10 min at 4° C. The supernatant was diluted in SDS-PAGE sample buffer, boiled for 5 min, and stored at −70° C. Western blot analysis was performed with antibodies that are selective for the phosphorylated (activated) forms of ERK1/2, p38-MAPK, JNK, AKT, and pan-PKC according to manufacturer's instructions. For each panel in each Figure, the results are from a single gel exposed for a uniform duration. Bands were detected by enhanced chemiluminescence and blots were quantified by laser scanning densitometry.

A further assay relates to PKC isoforms. Kind of assay: Immunoblot of PKC isoform partitioning and down-regulation in cardiomyocytes. The format is cell-based, rat. The settings on record: 24 hr experiments. The procedure: rPMT selectively activates nPKC isoforms. […] Soluble extracts were prepared and separated by SDS-PAGE followed by immunodetection of total PKC isoform abundance with antibodies that are specific for the individual PKC isoforms (Panel A), or phosphorylated forms of PKC (largely PKCε) with a pan-phospho-PKC antibody (Panels B and C), as described in Methods below. GF109203 was included at 5 μM 30 min prior to stimulation as indicated.
Cells were maintained in culture in the presence of 10% FCS for 96 hr and then switched to serum-free medium for 24 hr prior to the addition of agonists as indicated. For PKC, extracts were prepared and subjected to SDS-PAGE to resolve individual isoforms according to methods described previously (14).
as §2

Another assay has as its system ERK1/2. Kind of assay: Phospho-ERK1/2 Western blot in cardiomyocytes. Type of assay: cell-based, rat. The settings on record: cardiomyocytes; for effect on ERK phosphorylation/activation by rPMT: rPMT 400 ng/ml 24 hr. As for the experimental part: as §1
(§4) rPMT transactivation of the EGF receptor in cardiac fibroblasts, but not cardiomyocytes. Neonatal rat cardiomyocytes (Panel A) and cardiac fibroblasts (Panel B) were treated with rPMT (400 ng/ml) for 24 hr or EGF (50 ng/ml) for 5 min without or with AG1478 (2 μM, starting 30 min prior to stimulation). Cell lysates were subjected to SDS-PAGE followed by Western blotting with the anti-phospho-ERK1/2 antibody. Data are from a representative gel, with similar results obtained in 3 separate experiments.
as §3, with “The supernatant was diluted in SDS-PAGE sample buffer, boiled for 5 min, and stored at −70° C. Western blot analysis was performed with antibodies that are selective for the phosphorylated (activated) forms of ERK1/2, p38-MAPK, JNK, AKT, and pan-PKC according to manufacturer's instructions. For each panel in each Figure, the results are from a single gel exposed for a uniform duration.” left out

The next assay relates to AKT. Kind of assay: Phospho-AKT and total AKT Western blot in cardiomyocytes. Type of assay: cell-based, rat. The procedure:
rPMT decreases basal AKT phosphorylation and prevents its phosphorylation by EGF. Neonatal rat cardiomyocytes were treated with rPMT (400 ng/ml) for 24 hr (Panel A), 48 hr (Panel B) or with EGF (50 ng/ml) for 5 min. Cell lysates were subjected to SDS-PAGE followed by Western blotting with antibodies that recognize the phosphorylated form or total AKT. Data are from representative gels, with similar results obtained in 3 separate experiments.
Panel A: Cells were treated with norepinephrine (NE, 10 μM) or PMA (100 nM) for 5 min without or with GF109203 (5 μM).
Panel B: Cells were treated with rPMT (400 ng/ml), NE (10 μM) or PMA (100 nM) for 24 hr without or with Go6983 (5 μM). […] Cell lysates were subjected to SDS-PAGE followed by Western blotting using a specific anti-phospho-AKT antibody. Data are from representative gels, with similar results obtained in 3 separate culture preparations.
as §3

The test system of assay [1] is ERK1/2 in cardiac fibroblasts. The assay is described as follows: Phospho-ERK1/2 Western blot in cardiac fibroblasts. Type of assay: cell-based, rat. The settings on record: AG1478 2 μM. The procedure: as §4
Cardiac myocytes were dissociated from the ventricles of two-day-old Wistar rats by a trypsin digestion protocol which incorporates a differential attachment procedure to enrich for cardiac myocytes, as described previously (13). For some experiments, attached cells were maintained as fibroblast cultures. For studies of inositol phosphates, MAPKs, AKT, and PKC cardiomyocytes were plated at a density of 5×10^5 cells per ml (2 ml per 35-mm dish; 1 ml per 22.1-mm dish) and were cultured in MEM supplemented with 10% fetal calf serum. […]
as §2

For the molecule `OC[C@@H](O)[C@@H](O)[C@H](O)[C@@H](O)CO` [sorbitol, reference compound], in the assay on p38-MAPK, the “magnitude of p38-MAPK activation” value is on record as “strong activation”. In the assay with JNK, the “magnitude of JNK activation” value is reported as “strong activation”.
For `CN(C)CCCn1cc(C2=C(c3c[nH]c4ccccc34)C(=O)NC2=O)c2ccccc21` [GF109203, reference compound], the “effect on appearance of the more highly phosphorylated PKC-ε band induced by NE or PMA” value at PKC-ε (inhibitor 5 μM, 30 min prior to stimulation) is given as “prevented”. The “inhibition of PMA-dependent down-regulation of PKC isoforms” value with PKC isoforms is recorded as “did not”. Moreover, the “effect on ERK phosphorylation/activation by rPMT” value in the assay on ERK1/2 was “markedly inhibited”. Also, the “effect on inhibitory modulation of AKT phosphorylation by PMA” value in the assay on AKT (GF109203 5 μM, 5 min PMA) is recorded as “prevented”.
For the molecule EGF: epidermal growth factor, in the assay with AKT (EGF 50 ng/ml, 5 min), the “AKT activation in control cultures” value is “robust”.
For `COc1ccc2c(c1)c(C1=C(c3c[nH]c4ccccc34)C(=O)NC1=O)cn2CCCN(C)C` [Go6983, reference compound], in the assay on PKC isoforms, the “inhibition of PMA-dependent down-regulation of PKC isoforms” value is “completely inhibited”. For the same molecule, the “effect on negative regulation of AKT by rPMT” value with AKT (Go6983 5 μM, 24 hr) is “abrogates”.
As for `COc1cc2ncnc(Nc3cccc(Cl)c3)c2cc1OC` [AG1478, reference compound], in assay [1], the “effect on ERK activation by EGF” value was “marked effect to prevent ERK activation” and the “effect on ERK activation by rPMT” value is given as “marked effect to prevent ERK activation”. Besides, the “effect on EGF receptor-mediated ERK phosphorylation” value in the assay on ERK1/2 (AG1478 2 μM, EGF 50 ng/ml 5 min) is “effectively blocks”. In addition, in the assay with ERK1/2, the “effect on ERK phosphorylation/activation by rPMT” value is on record as “only a very minor reduction”.
As for `CCCCCCCCCCCCCC(=O)O[C@@H]1[C@@H](C)[C@@]2(O)[C@@H](C=C(CO)C[C@]3(O)C(=O)C(C)=C[C@@H]23)[C@@H]2C(C)(C)[C@]12OC(C)=O` [PMA, reference compound], the “phospho-PKC immunoreactivity during pharmacologic down-regulation” value at PKC-ε (24 hrs) is “drastically reduced”. Besides, at PKC-ε (NE 10 μM or PMA 100 nM for 5 min), the “PKC-ε phosphorylation/activation (phospho-PKC band pattern)” value is recorded as “slower mobility, more-highly phosphorylated species”. For the same molecule, the “basal AKT phosphorylation after acute treatment” value with AKT (5 min, PMA 100 nM, NE 10 μM) is given as “reduce basal AKT phosphorylation”. For the same molecule, the “basal AKT phosphorylation after 24 hr treatment” value in the assay on AKT (24 hr, relative to control cultures) was “reduced”.
